Laboratory results taken from PubChem BioAssay (NCI).
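Following 48 hours of exposure in 96-well plates, responses at five concentrations were used to interpolate endpoints linearly. TGI: concentration producing complete growth inhibition.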

Experiments:
Experiment in all cases: inhibition of tumour cell growth, NCI panel, 48 h
ACHN renal = system: ACHN renal
MDA-N = system: MDA-N
HCT-15 colon = system: HCT-15 colon
SN12C renal = system: SN12C renal
SF-268 CNS = system: SF-268 CNS
SK-MEL-2 melanoma = system: SK-MEL-2 melanoma
CAKI-1 renal = system: CAKI-1 renal
MALME-3M melanoma = system: MALME-3M melanoma
M14 melanoma = system: M14 melanoma
NCI/ADR-RES ovarian = system: NCI/ADR-RES ovarian
RXF 393 renal = system: RXF 393 renal
MDA-MB-231 breast = system: MDA-MB-231 breast
HCT-116 colon = system: HCT-116 colon
SNB-75 CNS = system: SNB-75 CNS
U251 CNS = system: U251 CNS
OVCAR-5 ovarian = system: OVCAR-5 ovarian
NCI-H226 lung = system: NCI-H226 lung
T-47D breast = system: T-47D breast
UACC-257 melanoma = system: UACC-257 melanoma
EKVX NSCLC = system: EKVX NSCLC
A549 NSCLC = system: A549 NSCLC
OVCAR-4 ovarian = system: OVCAR-4 ovarian
UO-31 renal = system: UO-31 renal
MOLT-4 leukemia = system: MOLT-4 leukemia
PC-3 prostate = system: PC-3 prostate
DU-145 prostate = system: DU-145 prostate
TK-10 renal = system: TK-10 renal
OVCAR-8 ovarian = system: OVCAR-8 ovarian
IGROV1 ovarian = system: IGROV1 ovarian
SNB-19 CNS = system: SNB-19 CNS
SK-OV-3 ovarian = system: SK-OV-3 ovarian
KM12 colon = system: KM12 colon
LOX IMVI melanoma = system: LOX IMVI melanoma
HS 578T breast = system: HS 578T breast
HT29 colon = system: HT29 colon
SF-295 CNS = system: SF-295 CNS
SK-MEL-5 melanoma = system: SK-MEL-5 melanoma
HOP-92 NSCLC = system: HOP-92 NSCLC
RPMI-8226 leukemia = system: RPMI-8226 leukemia
HCC-2998 colon = system: HCC-2998 colon
786-0 renal = system: 786-0 renal
MCF7 breast = system: MCF7 breast
CCRF-CEM leukemia = system: CCRF-CEM leukemia
NCI-H23 lung = system: NCI-H23 lung
COLO 205 colon = system: COLO 205 colon
K-562 leukemia = system: K-562 leukemia
SW-620 colon = system: SW-620 colon
MDA-MB-435 = system: MDA-MB-435
SK-MEL-28 melanoma = system: SK-MEL-28 melanoma
HOP-62 NSCLC = system: HOP-62 NSCLC
HL-60(TB) leukemia = system: HL-60(TB) leukemia
OVCAR-3 ovarian = system: OVCAR-3 ovarian
SF-539 CNS = system: SF-539 CNS
SR leukemia = system: SR leukemia
BT-549 breast = system: BT-549 breast
UACC-62 melanoma = system: UACC-62 melanoma
NCI-H460 lung = system: NCI-H460 lung
NCI-H522 lung = system: NCI-H522 lung

Measured: TGI

CCOP(=O)(OCC)C(C)(CC)NC1=NC(C(F)(F)F)(C(F)(F)F)NC(=O)N1 (stereo not drawn)
> 100 µM: ACHN renal | MDA-N | HCT-15 colon | SN12C renal | SF-268 CNS | SK-MEL-2 melanoma | CAKI-1 renal | MALME-3M melanoma | M14 melanoma | NCI/ADR-RES ovarian | RXF 393 renal | MDA-MB-231 breast | HCT-116 colon | SNB-75 CNS | U251 CNS | OVCAR-5 ovarian | NCI-H226 lung | T-47D breast | UACC-257 melanoma | EKVX NSCLC | A549 NSCLC | OVCAR-4 ovarian | UO-31 renal | MOLT-4 leukemia | PC-3 prostate | DU-145 prostate | TK-10 renal | OVCAR-8 ovarian | IGROV1 ovarian | SNB-19 CNS | SK-OV-3 ovarian | KM12 colon | LOX IMVI melanoma | HS 578T breast | HT29 colon | SF-295 CNS | SK-MEL-5 melanoma | HOP-92 NSCLC | RPMI-8226 leukemia | HCC-2998 colon | 786-0 renal | MCF7 breast | CCRF-CEM leukemia | NCI-H23 lung | COLO 205 colon | K-562 leukemia | SW-620 colon | MDA-MB-435 | SK-MEL-28 melanoma | HOP-62 NSCLC | HL-60(TB) leukemia | OVCAR-3 ovarian | SF-539 CNS | SR leukemia | BT-549 breast | UACC-62 melanoma | NCI-H460 lung

CCC(=O)NC(Nc1ccccc1F)(C(F)(F)F)C(F)(F)F
> 100 µM: ACHN renal | MDA-N | HCT-15 colon | SN12C renal | SF-268 CNS | SK-MEL-2 melanoma | CAKI-1 renal | M14 melanoma | NCI/ADR-RES ovarian | RXF 393 renal | MDA-MB-231 breast | HCT-116 colon | SNB-75 CNS | U251 CNS | OVCAR-5 ovarian | T-47D breast | UACC-257 melanoma | EKVX NSCLC | A549 NSCLC | OVCAR-4 ovarian | UO-31 renal | MOLT-4 leukemia | PC-3 prostate | DU-145 prostate | TK-10 renal | OVCAR-8 ovarian | IGROV1 ovarian | SNB-19 CNS | SK-OV-3 ovarian | KM12 colon | LOX IMVI melanoma | HS 578T breast | HT29 colon | SF-295 CNS | SK-MEL-5 melanoma | HOP-92 NSCLC | RPMI-8226 leukemia | HCC-2998 colon | MCF7 breast | CCRF-CEM leukemia | NCI-H23 lung | NCI-H522 lung | COLO 205 colon | K-562 leukemia | SW-620 colon | MDA-MB-435 | SK-MEL-28 melanoma | HL-60(TB) leukemia | OVCAR-3 ovarian | SF-539 CNS | SR leukemia | BT-549 breast | UACC-62 melanoma | NCI-H460 lung

CCOC(=O)CC1C(O)C(=O)N(C)C1c1ccccc1 (stereo not drawn)
> 100 µM: ACHN renal | MDA-N | HCT-15 colon | SN12C renal | SF-268 CNS | SK-MEL-2 melanoma | CAKI-1 renal | MALME-3M melanoma | M14 melanoma | NCI/ADR-RES ovarian | RXF 393 renal | MDA-MB-231 breast | HCT-116 colon | SNB-75 CNS | U251 CNS | OVCAR-5 ovarian | NCI-H226 lung | T-47D breast | UACC-257 melanoma | EKVX NSCLC | A549 NSCLC | OVCAR-4 ovarian | UO-31 renal | MOLT-4 leukemia | PC-3 prostate | DU-145 prostate | TK-10 renal | OVCAR-8 ovarian | IGROV1 ovarian | SNB-19 CNS | SK-OV-3 ovarian | KM12 colon | LOX IMVI melanoma | HS 578T breast | HT29 colon | SF-295 CNS | SK-MEL-5 melanoma | HOP-92 NSCLC | RPMI-8226 leukemia | HCC-2998 colon | 786-0 renal | MCF7 breast | CCRF-CEM leukemia | NCI-H23 lung | NCI-H522 lung | COLO 205 colon | K-562 leukemia | SW-620 colon | MDA-MB-435 | SK-MEL-28 melanoma | HOP-62 NSCLC | HL-60(TB) leukemia | OVCAR-3 ovarian | SF-539 CNS | SR leukemia | BT-549 breast | UACC-62 melanoma
